Data set [1] has as its system pancreatic ductal adenocarcinoma (PDAC; Pan02 cell). Put plainly: NIR-II fluorescence imaging of subcutaneous PDAC tumor-bearing C57BL/6 mice. The class given is in vivo, mouse. An excerpt: (§1) General NIR-II fluorescence imaging: A 640×512-pixel InGaAs camera (Ninox640, Raptor Photonics) and macro zoom lens (0-10×; Navitar Zoom 7000 with SWIR coating) along with 900, 1070, 1100, and 1200 nm long-pass (LP) filters from either Thorlab or Edmund optics were used to collect the NIR-II signal. InGaAs camera played a role as an open-air imaging system along with the support of the FLARE system. An 808 nm fiber-coupled diode laser ([…] at the sample) was used as an excitation source. Data acquisition was done using in-house developed software. The mice fur on the region of interest was shaved prior to imaging using a clipper and removed completely using a depilatory cream. 100 μL of SH1 in 5 w/v % BSA saline ([…]) was injected through the tail vein. Mice were imaged with intact skin using InGaAs camera. At least 3 mice were analyzed for each sample. […]
(§2) Statistical analysis: The fluorescence and background intensities of a region of interest over each tissue were quantified using customized imaging software and ImageJ v1.48 (National Institutes of Health, Bethesda, MD). The signal-to-background ratio (SBR) was calculated as SBR=fluorescence/background, where background was the fluorescence intensity of muscle. […] The differences among groups were determined using one-way ANOVA analysis to assess the statistical differences among more than two groups. […]

A further data set relates to PDAC (Pan02 cell line). Put plainly: Tumor targeting in Pan02 inoculated immune-deficient athymic nude mice. In kind it is in vivo, mouse.
Source text: General NIR-II fluorescence imaging: A 640×512-pixel InGaAs camera (Ninox640, Raptor Photonics) and macro zoom lens (0-10×; Navitar Zoom 7000 with SWIR coating) along with 900, 1070, 1100, and 1200 nm long-pass (LP) filters from either Thorlab or Edmund optics were used to collect the NIR-II signal. InGaAs camera played a role as an open-air imaging system along with the support of the FLARE system. An 808 nm fiber-coupled diode laser ([…] at the sample) was used as an excitation source. Data acquisition was done using in-house developed software. The mice fur on the region of interest was shaved prior to imaging using a clipper and removed completely using a depilatory cream. 100 μL of SH1 in 5 w/v % BSA saline ([…]) was injected through the tail vein. Mice were imaged with intact skin using InGaAs camera. At least 3 mice were analyzed for each sample.
as §2

Data set [2] relates to triple-negative breast adenocarcinoma (E0771 cell). Put plainly: NIR-II fluorescence imaging of subcutaneous breast tumor-bearing C57BL/6 mice. In kind it is in vivo, mouse. The settings on record: larger-sized breast tumors.
Source text: as §1, §2

The subject of another data set is LLC tumor. The data set can be described thus: Quantitative 3D FLECT/CT tumor accumulation. The class given is in vivo, mouse. The settings on record: from 24 h to 48 h post-injection. As for the experimental part:
Quantitative analysis using InSyTe FLECT/CT: 3D fluorescence images were acquired with the TriFoil Imaging InSyTe FLECT/CT, a commercial preclinical imaging system with full 3D fluorescence tomography imaging capability and an inline CT system. Animals were anesthetized with isoflurane during scans. FLECT scans were performed with 116 projections per slice, 780 nm laser for excitation, and 853/45 bandpass fluorescence emission filter. After data collection, fluorescence images were reconstructed using a proprietary FLECT reconstruction engine. CT scans were performed with 360 projections per slice, 35 kV tube voltage, 950 uA tube current, and 100 ms exposure. CT images were reconstructed using the COBRA filtered back-projection algorithm (Exxim, Computing Corporation, Pleasanton, CA). Quantitative analysis of 3D fluorescence images was performed using the VivoQuant 2020 image analysis software (Invicro, Boston, MA). FLECT and CT images were co-registered in VivoQuant 2020. Volumes-of-interest (VOI) were segmented via intensity thresholding, where the threshold limits were set to the local full-width-half-maximum (FWHM) intensity value for the lower threshold bound and local maximum intensity value for the upper threshold bound.

A short description of data set [3]: Optical study in EtOH, DMSO, HEPES and PBS. The class given is physicochemical. As for the experimental part: Optical Study, Photostability, Physicochemical Properties, and DFT Calculation: 1 mM stock solution in DMSO of the synthesized fluorophores was prepared before starting any spectral measurement. Optical properties for the synthesized fluorophores were measured in four different solvents (EtOH, DMSO, HEPES, and PBS). Absorbance spectra were measured in a Varian Cary 50 absorbance spectrophotometer (190-1100 nm). Fluorescence emission and photostability were measured and emission spectra were recorded on a Shimadzu RF-5301PC spectrofluorometer. Physicochemical properties (Log D, molecular mass, TPSA, H bond D/A, polarizability, molecular volume, and rotatable bonds) were predicted by ChemAxon (JChem plugin). Theoretical calculations of frontier molecular orbitals (FMOs) for the optimized structures of selected fluorophores were calculated based on DFT calculations at the B3LYP/6-311G(d,p) level.
In vivo success of a contrast agent can depend on the absorption and emission profiles, molar extinction coefficient, quantum yield, molecular brightness, physicochemical properties, and photochemical stability. Different types of polymethine bridges can have an impact on the structural geometry of the fluorophores and the absorption and emission profiles. Optical properties were measured in polar protic EtOH, polar aprotic DMSO, and two buffer solutions, phosphate-buffered saline (PBS, PH ˜7.4) and 4-(2-hydroxyethyl)-1-piperazine-ethanesulfonic acid (HEPES, PH ˜7.4). Organic solvents such as ethanol (EtOH) and dimethyl sulfoxide (DMSO) are often used in spectroscopic experiments to observe the absorption and emission maximum, whereas buffer solvents PBS and HEPES were used to mimic the biological environment, as these synthesized fluorophores are intended to be used in bioimaging. The absorbance profiles of these fluorophores were recorded at various concentrations (0.8, 1.6, 2.4, 3.2, 4.0 μM) and the absorbance values obtained were plotted against each of the concentrations. […] Fluorophores 18-21 refer to the labels in Example 4 and FIG. 7D.
The molar extinction coefficient is an intrinsic property of any fluorophore and can be important for high image resolution. […] These properties vary with the structure change and are difficult to predict beforehand. The optical properties of the synthesized fluorophores were measured in various media. All measurements were performed in 2 different organic solvents (EtOH and DMSO) and 2 different buffer (HEPES and PBS), and ICG was used as a reference (ΦICG=0.043).

Values joined by “and” are separate entries in the source; they are usually repeats but may differ in a detail not shown here. Equal values may be shown once.

Turning to `CCCCN1/C(=C/C=C2\CCCC(/C=C/C3=[N+](CCCC)c4ccc(Cl)cc4C3(C)C)=C2Cl)C(C)(C)c2cc(Cl)ccc21` [SH1, 1-butyl-2-((E)-2-((E)-3-(2-((E)-1-butyl-5-chloro-3,3-dimethylindolin-2-ylidene)ethylidene)-2-chlorocyclohex-1-en-1-yl)vinyl)-5-chloro-3,3-dimethyl-3H-indol-1-ium], the TBR in data set [1] (PDAC less than 5 mm in size, compared to healthy tissue) was ~9.5; in data set [2], 17.6. Moreover, the “onset of signals in the cancerous region” value in data set [1] (intravenous, until 24 h post-injection) is “did not appear at early time points”. Further, the “tumor-to-muscle signal ratio (TMR)” value with PDAC (Pan02 cell line) was ~3.0 and 3.6. For the same compound, the “increase of % ID in cancer area” value with LLC tumor was “more than 2 fold”. In addition, the molar extinction coefficient in data set [3] (DMSO) was 203,000 cm^−1 M^−1; in data set [3] (EtOH), 270,000 cm^−1 M^−1; in data set [3] (HEPES), 44,000 cm^−1 M^−1; in data set [3] (PBS), 41,000 cm^−1 M^−1. In addition, in data set [3] (HEPES), the Stokes shift came out at 140 nm. The same compound gave an absorbance maximum in data set [3] (HEPES) of 661 nm. The emission wavelength in data set [3] (HEPES) is recorded as 802 nm.

These data come from patent US20260166182A1, “CYANINE-BASED FLUOROPHORES” (The General Hospital Corporation, priority 2022, published 2026).
